Measurements taken from patent US8937062B2, “Compositions and methods for treating, reducing, ameliorating, or preventing infections caused by antibacterial drug-resistant bacteria” (Bausch & Lomb Incorporated, priority 2007, dated 2015).
≈ marks a conversion by molar mass, not a printed value. Like-named read-outs stand apart in the source and are kept apart here.

What was measured:
[1] = system: Methicillin-Resistant S. aureus Isolates; test: In vitro anti-bacterial activity, fourth test, Table 5; type: cell-based, Staphylococcus aureus; settings: Staphylococcus aureus, read-out: MIC90
Description: In a fourth test, the anti-bacterial activity of the compound having Formula IV was tested against some methicillin-resistant S. aureus bacteria strains and compared to the anti-bacterial activity of three commercially available antibiotics: nadifloxacin (“NDFX”), ofloxacin (“OFLX”), and sparfloxacin (“SPFX”).

[2] = system: Gentamicin-resistant Pseudomonas aeruginosa; test: In vitro anti-bacterial activity, resistant clinical isolates, fifth test, Table 6; type: cell-based; settings: read-out: MIC90
Text: (§1) As disclosed above, most of these bacteria strains are also relevant to infections of the ear and upper respiratory tract.

[3] = system: Penicillin-resistant Streptococcus pneumoniae; test: as above; type: cell-based; settings: read-out: MIC90
Text: as §1

[4] = system: Gentamicin-resistant Staphylococcus aureus; test: as above; type: cell-based; settings: read-out: MIC90
Text: as §1

[5] = system: Ofloxacin-resistant Staphylococcus aureus; test: as above; type: cell-based; settings: read-out: MIC90
Text: as §1

[6] = system: OFLX-resistant S. aureus; test: MIC90, agar plate dilution method (NCCLS), Table 2; type: cell-based; settings: 10 isolates; for MIC90: Staphylococcus aureus
Description: (§2) The MIC90 values for this test were determined by the agar plate dilution method according to the National Committee for Clinical Laboratory Standards (“NCCLS”).

[7] = system: PCG-resistant S. pneumoniae; test: MIC90, agar plate dilution method (NCCLS), Table 2; type: cell-based; settings: 10 isolates; for MIC90: Streptococcus pneumoniae
Description: as §2

[8] = system: GM-resistant S. aureus; test: MIC90, agar plate dilution method (NCCLS), Table 2; type: cell-based; settings: 10 isolates; for MIC90: Staphylococcus aureus
Description: as §2

[9] = system: APC-resistant Haemophilus influenza.; test: MIC90, agar plate dilution method (NCCLS), Table 2; type: cell-based; settings: for MIC90 Range: APC-resistant Haemophilus influenza., 10 isolates; for MIC90: Haemophilus
Description: as §2

[10] = system: OFLX-resistant Enterobacteriaceae; test: MIC90, agar plate dilution method (NCCLS), Table 2; type: cell-based
Description: as §2

[11] = system: GM-resistant P. aeruginosa; test: MIC90, agar plate dilution method (NCCLS), Table 2; type: cell-based; settings: 10 isolates; for MIC90: Pseudomonas aeruginosa
Description: as §2

[12] = system: Ofloxacin-resistant Enterobacteriaceae; test: organism not typed; type: cell-based
Text: as §1

[13] = system: methicillin-resistant S. aureus; test: MIC90, Japanese Society of Chemotherapy guidelines (1993), Table 3; type: cell-based; settings: Staphylococcus aureus, read-out: MIC90
Description: (§3) In a second test, compounds having Formulae IV and V, their racemic mixture, and OFLX were tested in vitro against S. aureus strains that are resistant to methicillin or penicillin. The test was conducted according to the guidelines of the Japanese Society of Chemotherapy (1993).

[14] = system: penicillin-resistant S. aureus; test: as above; type: cell-based; settings: Staphylococcus aureus, read-out: MIC90
Description: as §3

[15] = ATCC33591, Staphylococcus aureus (ATCC 33591)
[16] = ATCC33592, Staphylococcus aureus (ATCC 33592)
[17] = ATCC33593, Staphylococcus aureus (ATCC 33593)
[18] = Staphylococcus aureus (No. 395)
[19] = Staphylococcus aureus (No. 415)
[20] = Staphylococcus aureus (No. 419)
[21] = Staphylococcus aureus (No. 420)
[22] = Staphylococcus aureus (No. 421)

MIC90 [1, 15] [µg/mL] | MIC90 [1, 16] [µg/mL] | MIC90 [1, 17] [µg/mL] | MIC90 [1, 18] [µg/mL] | MIC90 [1, 19] [µg/mL] | MIC90 [1, 20] [µg/mL] | MIC90 [1, 21] [µg/mL] | MIC90 [1, 22] [µg/mL] | SMILES | MIC90 ([6]; read-out: MIC90 Geometric Mean) [µg/mL] | MIC90 ([6]; read-out: MIC90 Value) [µg/mL] | MIC90 Range [7] [µg/mL] | MIC90 ([7]; read-out: MIC90 Geometric Mean) [µg/mL] | MIC90 ([7]; read-out: MIC90 Value) [µg/mL] | MIC90 ([8]; read-out: MIC90 Geometric Mean) [µg/mL] | MIC90 ([8]; read-out: MIC90 Value) [µg/mL] | MIC90 Range [9] | MIC90 ([9]; read-out: MIC90 Geometric Mean) [µg/mL] | MIC90 ([9]; read-out: MIC90 Value) [µg/mL] | MIC90 ([10]; read-out: MIC90 Geometric Mean) [µg/mL] | MIC90 ([10]; read-out: MIC90 Value) [µg/mL] | further results
0.006 (≈ 0.0166 µM) | 0.05 (≈ 0.139 µM) | 0.024 (≈ 0.0666 µM) | 0.024 (≈ 0.0666 µM) | 0.1 (≈ 0.277 µM) | 0.39 (≈ 1.08 µM) | 0.78 (≈ 2.16 µM) | 0.78 (≈ 2.16 µM) | CC1CCc2c(N3CCC(O)CC3)c(F)cc3c(=O)c(C(=O)O)cn1c23 (stereo not shown) [NDFX, nadifloxacin] | – | – | – | – | – | – | – | – | – | – | – | – | –
– | – | – | – | – | – | – | – | CCn1cc(C(=O)O)c(=O)c2cc(F)c(N3CCNCC3)cc21 [NFLX, norfloxacin] | 194 (≈ 608 µM) | > 128 | 2 to 8 | 4.29 (≈ 13.4 µM) | 8 (≈ 25.1 µM) | 48.5 (≈ 152 µM) | > 128 | ≦0.06 μg/ml | ≤ 0.06 | ≤ 0.06 | 48.5 (≈ 152 µM) | 128 (≈ 401 µM) | MIC90 [2]: 128 µg/mL (≈ 401 µM); MIC90 [3]: 8 µg/mL (≈ 25.1 µM); MIC90 [4]: 128 µg/mL (≈ 401 µM); MIC90 [5]: > 128 µg/mL; MIC90 Range ([10]; OFLX-resistant Enterobacteriaceae, 10 isolates): 16 to 128 µg/mL; MIC90 Range [11]: 0.5 to 128 µg/mL; MIC90 ([11]; read-out: MIC90 Geometric Mean): 5.66 µg/mL (≈ 17.7 µM); MIC90 ([11]; read-out: MIC90 Value): 128 µg/mL (≈ 401 µM); MIC90 [12]: 128 µg/mL (≈ 401 µM)
0.024 (≈ 0.0612 µM) | 0.1 (≈ 0.255 µM) | 0.024 (≈ 0.0612 µM) | 0.05 (≈ 0.127 µM) | 0.2 (≈ 0.51 µM) | 1.56 (≈ 3.98 µM) | 0.78 (≈ 1.99 µM) | 0.39 (≈ 0.994 µM) | C[C@@H]1CN(c2c(F)c(N)c3c(=O)c(C(=O)O)cn(C4CC4)c3c2F)C[C@H](C)N1 [SPFX, sparfloxacin] | – | – | – | – | – | – | – | – | – | – | – | – | –
– | – | – | – | – | – | – | – | O=C1CCN(c2c(F)cc3c(=O)c(C(=O)O)cn(C4CC4)c3c2Cl)CCN1 [VI] | 1.52 (≈ 3.86 µM) | 4 (≈ 10.2 µM) | 0.13 to 0.25 | 0.14 (≈ 0.356 µM) | 0.13 (≈ 0.33 µM) | 0.43 (≈ 1.09 µM) | 4 (≈ 10.2 µM) | ≦0.06 μg/ml | ≤ 0.06 | ≤ 0.06 | 32 (≈ 81.3 µM) | 32 (≈ 81.3 µM) | MIC90 Range [6]: 0.25 to 8 µg/mL; MIC90 Range [8]: ≦0.006-4 μg/ml; MIC90 Range [11]: 0.5 to 64 µg/mL; MIC90 ([11]; read-out: MIC90 Geometric Mean): 6.96 µg/mL (≈ 17.7 µM); MIC90 ([11]; read-out: MIC90 Value): 32 µg/mL (≈ 81.3 µM)
– | – | – | – | – | – | – | – | N[C@H]1CCCCN(c2c(F)cc3c(=O)c(C(=O)O)cn(C4CC4)c3c2Cl)C1 [V] | – | – | – | – | – | – | – | – | – | – | – | – | MIC90 ([13]; ATCC33591, S. aureus (ATCC 33591)): 0.1 µg/mL (≈ 0.254 µM); MIC90 ([13]; ATCC33592, S. aureus (ATCC 33592)): 0.05 µg/mL (≈ 0.127 µM); MIC90 ([13]; ATCC33593, S. aureus (ATCC 33593)): 0.05 µg/mL (≈ 0.127 µM); MIC90 ([13]; S. aureus (No. 395)): 0.1 µg/mL (≈ 0.254 µM); MIC90 ([13]; S. aureus (No. 415)): 0.05 µg/mL (≈ 0.127 µM); MIC90 ([13]; S. aureus (No. 419)): 0.1 µg/mL (≈ 0.254 µM); MIC90 ([13]; S. aureus (No. 420)): 0.05 µg/mL (≈ 0.127 µM); MIC90 ([13]; S. aureus (No. 421)): 0.1 µg/mL (≈ 0.254 µM); MIC90 ([14]; ATCC11632, S. aureus (ATCC 11632)): 0.05 µg/mL (≈ 0.127 µM); MIC90 ([14]; ATCC13301, S. aureus (ATCC 13301)): 0.05 µg/mL (≈ 0.127 µM)
